Like-named read-outs stand apart in the source and are kept apart here.
Experiment: TED14856 Part A: plasma pharmacokinetics of compound (1)
Assay type: in vivo, human

SMILES: O=C(O)c1ccc2c(c1)CCCC(c1ccc(Cl)cc1Cl)=C2c1ccc(O[C@H]2CCN(CCCF)C2)cc1 [compound (1), 6-(2,4-dichlorophenyl)-5-[4-[(3S)-1-(3-fluoropropyl)pyrrolidin-3-yl]oxyphenyl]-8,9-dihydro-7H-benzo[7]annulene-2-carboxylic acid]
- variability of exposure parameters (average CV) (after repeated administrations): ~45%
- total variability of exposure parameters (average CV) (after single dose administration): > 60%
- Cmax (female, human, plasma, oral, 20 mg, single 20 mg, Cycle1 Day 1, fasted, N=3, read-out: Cmax (Mean ± SD)): 187 ± 46.7 ng/mL
- Cmax (female, human, plasma, oral, 150 mg, single 150 mg, Cycle1 Day 1, fasted, N=3, read-out: Cmax (Mean ± SD)): 1310 ± 1380 ng/mL
- Cmax (female, human, plasma, oral, 200 mg, single 200 mg, Cycle1 Day 1, fasted, N=4, read-out: Cmax (Mean ± SD)): 1650 ± 1340 ng/mL
- Cmax (female, human, plasma, oral, 400 mg, single 400 mg, Cycle1 Day 1, fasted, N=3, read-out: Cmax (Mean ± SD)): 4740 ± 2920 ng/mL
- Tmax (female, human, plasma, oral, 20 to 600 mg once a day, fasting, Day 1 and Day 22 Cycle 1, read-out: median time to achieve maximum concentration (tmax)): ~3 h
- clearance (female, human, plasma, oral, across the 20-600 mg range, read-out: mean apparent systemic clearance): 233 to 250 mL/min
- Vd (female, human, plasma, oral, across the 20-600 mg range, read-out: mean apparent volume of distribution): ~120 L
- half-life (female, human, plasma, oral, estimated over 48 hours after a single dose on Day 1, read-out: mean apparent terminal half-life): ≥ 8 h
- AUC(0-t) (human, plasma, oral, 20 mg, repeated 20 mg once daily, Cycle1 Day 22, fasted, N=3, read-out: AUC0-24 (Geometric Mean)): 1350 ng·h/mL
- AUC(0-t) (human, plasma, oral, 20 mg, repeated 20 mg once daily, Cycle1 Day 22, fasted, N=3, read-out: AUC0-24 (Mean ± SD)): 1630 ± 1120 ng·h/mL
- Cmax (human, plasma, oral, 20 mg, repeated 20 mg once daily, Cycle1 Day 22, fasted, N=3, read-out: Cmax (Geometric Mean)): 203 ng/mL
- Cmax (human, plasma, oral, 20 mg, repeated 20 mg once daily, Cycle1 Day 22, fasted, N=3, read-out: Cmax (Mean ± SD)): 218 ± 95.3 ng/mL
- Tmax (human, plasma, oral, 20 mg, repeated 20 mg once daily, Cycle1 Day 22, fasted, N=3, read-out: tmax (median)): 2.17 h
- Vd/F (human, plasma, oral, 20 mg, single 20 mg, Cycle1 Day 1, fasted, N = 1, read-out: Vss/F (Geometric Mean)): 81.9 L
- Vd/F (human, plasma, oral, 20 mg, single 20 mg, Cycle1 Day 1, fasted, N = 1, read-out: Vss/F (Mean ± SD)): 81.9 L
- AUC(0-t) (human, plasma, oral, 20 mg, single 20 mg, Cycle1 Day 1, fasted, N=3, read-out: AUC0-24 (Geometric Mean)): 924 ng·h/mL
- Cmax (human, plasma, oral, 20 mg, single 20 mg, Cycle1 Day 1, fasted, N=3, read-out: Cmax (Geometric Mean)): 183 ng/mL
- Tmax (human, plasma, oral, 20 mg, single 20 mg, Cycle1 Day 1, fasted, N=3, read-out: tmax (median)): 1.52 h
- AUC(0-t) (human, plasma, oral, 150 mg, repeated 150 mg once daily, Cycle1 Day 22, fasted, N=2, read-out: AUC0-24 (Geometric Mean)): 15000 ng·h/mL
- AUC(0-t) (human, plasma, oral, 150 mg, repeated 150 mg once daily, Cycle1 Day 22, fasted, N=2, read-out: AUC0-24 (Mean ± SD)): 15900 ng·h/mL
- Cmax (human, plasma, oral, 150 mg, repeated 150 mg once daily, Cycle1 Day 22, fasted, N=2, read-out: Cmax (Geometric Mean)): 2230 ng/mL
- Cmax (human, plasma, oral, 150 mg, repeated 150 mg once daily, Cycle1 Day 22, fasted, N=2, read-out: Cmax (Mean ± SD)): 2390 ng/mL
- Tmax (human, plasma, oral, 150 mg, repeated 150 mg once daily, Cycle1 Day 22, fasted, N=2, read-out: tmax (median)): 2.97 h
- Vd/F (human, plasma, oral, 150 mg, single 150 mg, Cycle1 Day 1, fasted, N = 1, read-out: Vss/F (Geometric Mean)): 61.5 L
- Vd/F (human, plasma, oral, 150 mg, single 150 mg, Cycle1 Day 1, fasted, N = 1, read-out: Vss/F (Mean ± SD)): 61.5 L
- AUC(0-t) (human, plasma, oral, 150 mg, single 150 mg, Cycle1 Day 1, fasted, N=3, read-out: AUC0-24 (Geometric Mean)): 6860 ng·h/mL
- AUC(0-t) (human, plasma, oral, 150 mg, single 150 mg, Cycle1 Day 1, fasted, N=3, read-out: AUC0-24 (Mean ± SD)): 9140 ± 8730 ng·h/mL
- Cmax (human, plasma, oral, 150 mg, single 150 mg, Cycle1 Day 1, fasted, N=3, read-out: Cmax (Geometric Mean)): 884 ng/mL
- Tmax (human, plasma, oral, 150 mg, single 150 mg, Cycle1 Day 1, fasted, N=3, read-out: tmax (median)): 3 h
- AUC(0-t) (human, plasma, oral, 200 mg, repeated 200 mg once daily, Cycle1 Day 22, fasted, N=3, read-out: AUC0-24 (Geometric Mean)): 13400 ng·h/mL
- AUC(0-t) (human, plasma, oral, 200 mg, repeated 200 mg once daily, Cycle1 Day 22, fasted, N=3, read-out: AUC0-24 (Mean ± SD)): 13900 ± 4380 ng·h/mL
- Cmax (human, plasma, oral, 200 mg, repeated 200 mg once daily, Cycle1 Day 22, fasted, N=3, read-out: Cmax (Geometric Mean)): 2030 ng/mL
- Cmax (human, plasma, oral, 200 mg, repeated 200 mg once daily, Cycle1 Day 22, fasted, N=3, read-out: Cmax (Mean ± SD)): 2150 ± 873 ng/mL
- Tmax (human, plasma, oral, 200 mg, repeated 200 mg once daily, Cycle1 Day 22, fasted, N=3, read-out: tmax (median)): 2.07 h
- AUC(0-t) (human, plasma, oral, 200 mg, single 200 mg, Cycle1 Day 1, fasted, N=4, read-out: AUC0-24 (Geometric Mean)): 9760 ng·h/mL
- AUC(0-t) (human, plasma, oral, 200 mg, single 200 mg, Cycle1 Day 1, fasted, N=4, read-out: AUC0-24 (Mean ± SD)): 13600 ± 13800 ng·h/mL
- Cmax (human, plasma, oral, 200 mg, single 200 mg, Cycle1 Day 1, fasted, N=4, read-out: Cmax (Geometric Mean)): 1340 ng/mL
- Vd/F (human, plasma, oral, 200 mg, single 200 mg, Cycle1 Day 1, fasted, N=4, read-out: Vss/F (Geometric Mean)): 173 L
- Vd/F (human, plasma, oral, 200 mg, single 200 mg, Cycle1 Day 1, fasted, N=4, read-out: Vss/F (Mean ± SD)): 213 ± 127 L
- Tmax (human, plasma, oral, 200 mg, single 200 mg, Cycle1 Day 1, fasted, N=4, read-out: tmax (median)): 2.98 h
- AUC(0-t) (human, plasma, oral, 400 mg, repeated 400 mg once daily, Cycle1 Day 22, fasted, N=3, read-out: AUC0-24 (Geometric Mean)): 29500 ng·h/mL
- AUC(0-t) (human, plasma, oral, 400 mg, repeated 400 mg once daily, Cycle1 Day 22, fasted, N=3, read-out: AUC0-24 (Mean ± SD)): 36800 ± 23500 ng·h/mL
- Cmax (human, plasma, oral, 400 mg, repeated 400 mg once daily, Cycle1 Day 22, fasted, N=3, read-out: Cmax (Geometric Mean)): 3370 ng/mL
- Cmax (human, plasma, oral, 400 mg, repeated 400 mg once daily, Cycle1 Day 22, fasted, N=3, read-out: Cmax (Mean ± SD)): 4020 ± 2460 ng/mL
- Tmax (human, plasma, oral, 400 mg, repeated 400 mg once daily, Cycle1 Day 22, fasted, N=3, read-out: tmax (median)): 2.95 h
- AUC(0-t) (human, plasma, oral, 400 mg, single 400 mg, Cycle1 Day 1, fasted, N=3, read-out: AUC0-24 (Geometric Mean)): 37600 ng·h/mL
- AUC(0-t) (human, plasma, oral, 400 mg, single 400 mg, Cycle1 Day 1, fasted, N=3, read-out: AUC0-24 (Mean ± SD)): 40400 ± 17500 ng·h/mL
- Cmax (human, plasma, oral, 400 mg, single 400 mg, Cycle1 Day 1, fasted, N=3, read-out: Cmax (Geometric Mean)): 4120 ng/mL
- Vd/F (human, plasma, oral, 400 mg, single 400 mg, Cycle1 Day 1, fasted, N=3, read-out: Vss/F (Geometric Mean)): 112 L
- Vd/F (human, plasma, oral, 400 mg, single 400 mg, Cycle1 Day 1, fasted, N=3, read-out: Vss/F (Mean ± SD)): 117 ± 40.6 L
- Tmax (human, plasma, oral, 400 mg, single 400 mg, Cycle1 Day 1, fasted, N=3, read-out: tmax (median)): 3 h
- AUC(0-t) (human, plasma, oral, 600 mg, repeated 600 mg once daily, Cycle1 Day 22, fasted, N=3, read-out: AUC0-24 (Geometric Mean)): 41700 ng·h/mL
- AUC(0-t) (human, plasma, oral, 600 mg, repeated 600 mg once daily, Cycle1 Day 22, fasted, N=3, read-out: AUC0-24 (Mean ± SD)): 42700 ± 11200 ng·h/mL
- Cmax (human, plasma, oral, 600 mg, repeated 600 mg once daily, Cycle1 Day 22, fasted, N=3, read-out: Cmax (Geometric Mean)): 5510 ng/mL
- Cmax (human, plasma, oral, 600 mg, repeated 600 mg once daily, Cycle1 Day 22, fasted, N=3, read-out: Cmax (Mean ± SD)): 5570 ± 962 ng/mL

Source: patent US20200352905A1, “6-(2,4-DICHLOROPHENYL)-5-[4-[(3S)-1-(3-FLUOROPROPYL)PYRROLIDIN-3-YL]OXYPHENYL]-8,9-DIHYDRO-7H-BENZO[7]ANNULENE-2-CARBOXYLIC ACID FOR USE IN METASTATIC OR ADVANCED BREAST CANCER PATIENTS” (SANOFI, priority 2019, published 2020)
